Results on 19 compounds are retold here after US20240287076A1, “COMPOUNDS FOR TARGETING DEGRADATION OF BRUTON'S TYROSINE KINASE” (BIOGEN MA INC., priority 2021, published 2024).

SMILES strings stand for the structures.

In the assay the target is T1, BTK (Homo sapiens, UniProt Q06187).
T1 construct: The GM01501.3 cell line endogenously expresses BTK with a HiBiT fusion tag via CRISPR knock-in at its C-terminal region; endogenous in cells; host or cells: GM01501.3 (GM01501 cells engineered by CRISPR knock-in of HiBiT at the BTK locus)
T1 sequence (Q06187 whole entry, the tested form may be a part): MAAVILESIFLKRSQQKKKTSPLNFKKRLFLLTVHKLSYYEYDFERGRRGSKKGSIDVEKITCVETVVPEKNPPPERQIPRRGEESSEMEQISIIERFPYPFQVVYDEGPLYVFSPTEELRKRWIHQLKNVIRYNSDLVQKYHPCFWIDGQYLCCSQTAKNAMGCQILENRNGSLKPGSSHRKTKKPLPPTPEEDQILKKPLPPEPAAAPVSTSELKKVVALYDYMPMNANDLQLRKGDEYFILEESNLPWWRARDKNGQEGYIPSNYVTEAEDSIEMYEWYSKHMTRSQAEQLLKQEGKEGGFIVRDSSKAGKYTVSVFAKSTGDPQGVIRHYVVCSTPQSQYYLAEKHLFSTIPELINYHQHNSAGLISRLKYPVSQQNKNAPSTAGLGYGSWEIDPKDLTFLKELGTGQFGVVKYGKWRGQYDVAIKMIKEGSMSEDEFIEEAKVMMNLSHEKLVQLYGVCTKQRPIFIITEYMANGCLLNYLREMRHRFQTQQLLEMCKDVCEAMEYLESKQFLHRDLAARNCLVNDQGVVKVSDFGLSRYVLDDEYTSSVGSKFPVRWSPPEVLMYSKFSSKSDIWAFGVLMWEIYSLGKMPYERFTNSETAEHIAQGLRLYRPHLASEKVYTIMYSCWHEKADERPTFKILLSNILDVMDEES
In words: BTK degradation assay using the HiBiT Method (Nano-Glo HiBiT Lytic Assay, GM01501.3 cells). The format is cell-based. Particulars: HiBiT Degradation on GM01501.3 BTK @ 6 hours. In short, it runs like this:
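CRISPR knock-in GM01501.3 cells expressing endogenous BTK with C-terminal HiBiT tag, treated 6 h at 37 °C with compounds, 11-point half-log titration from 10 μM top, duplicates. Remaining BTK quantified by Nano-Glo HiBiT lytic luminescence versus DMSO controls; DC50 reported.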
For orientation: HiBiT is a short tag that completes a luciferase, so light tracks the accessible tagged protein.

`CC(C)(C)c1nc(C(=O)NCc2ccc(-c3ncnn4cc(-c5ccc(OCCN6CCC(c7ccc(NC8CCC(=O)NC8=O)nc7)CC6)cc5)cc34)cc2F)no1` (stereo not shown) [Example 110, 5-tert-butyl-N-[[4-[6-[4-[2-[4-[6-[(2,6-dioxo-3-piperidyl)amino]-3-pyridyl]-1-piperidyl]ethoxy]phenyl]pyrrolo[2,1-f][1,2,4]triazin-4-yl]-2-fluoro-phenyl]methyl]-1,2,4-oxadiazole-3-carboxamide]: the DC50 (usually the concentration giving 50% degradation) is < 100 nM. In the case of `Cc1cc(-c2ncnn3cc(-c4ccc(CN5CCC(c6ccc(NC7CCC(=O)NC7=O)cc6C(F)(F)F)CC5)cc4)cc23)ccc1CNC(=O)c1noc(C(C)(C)C)n1` (stereo not shown) [Example 27, 5-tert-butyl-N-[[4-[6-[4-[[4-[4-[(2,6-dioxo-3-piperidyl)amino]-2-(trifluoromethyl)phenyl]-1-piperidyl]methyl]phenyl]pyrrolo[2,1-f][1,2,4]triazin-4-yl]-2-methyl-phenyl]methyl]-1,2,4-oxadiazole-3-carboxamide], the DC50 is < 100 nM.

Consider `Cc1cc(-c2ncnn3cc(-c4ccc(CN5CCC(c6ccc(NC7CCC(=O)NC7=O)cc6)CC5)cc4)cc23)ccc1CNC(=O)c1ccc(C(F)F)cn1` (stereo not shown) [Example 96, 5-(difluoromethyl)-N-[[4-[6-[4-[[4-[4-[(2,6-dioxo-3-piperidyl)amino]phenyl]-1-piperidyl]methyl]phenyl]pyrrolo[2,1-f][1,2,4]triazin-4-yl]-2-methyl-phenyl]methyl]pyridine-2-carboxamide], for which the DC50 is < 100 nM.

On to `Cc1cc(-c2ncnn3cc(N4CCN(C(=O)C5CCN(C(=O)c6ccc(OC7CCC(=O)NC7=O)cc6)C56CCC6)CC4)cc23)ccc1CNC(=O)c1noc(C(C)(C)C)n1` (stereo not shown) [Example 191, 5-(tert-butyl)-N-(4-(6-(4-(5-(4-((2,6-dioxopiperidin-3-yl)oxy)benzoyl)-5-azaspiro[3.4]octane-8-carbonyl)piperazin-1-yl)pyrrolo[2,1-f][1,2,4]triazin-4-yl)-2-methylbenzyl)-1,2,4-oxadiazole-3-carboxamide], for which the DC50 is < 100 nM.

Take `Cc1cc(-c2ncnn3cc(-c4ccc(N5CCC(c6ccc(C7CCC(=O)NC7=O)cc6)CC5)cc4)cc23)ccc1CNC(=O)c1noc(C(C)(C)C)n1` (stereo not shown) [Example 146, 5-tert-butyl-N-[[4-[6-[4-[4-[4-(2,6-dioxo-3-piperidyl)phenyl]-1-piperidyl]phenyl]pyrrolo[2,1-f][1,2,4]triazin-4-yl]-2-methyl-phenyl]methyl]-1,2,4-oxadiazole-3-carboxamide]: the DC50 is 100 to 500 nM. With `COc1cc(CN2CCC(c3ccc(C4CCC(=O)NC4=O)cc3)CC2)ccc1-c1cc2c(-c3ccc(CNC(=O)c4noc(C(C)(C)C)n4)c(C)c3)ncnn2c1` (stereo not shown) [Example 22, 5-tert-butyl-N-[[4-[6-[4-[[4-[4-(2,6-dioxo-3-piperidyl)phenyl]-1-piperidyl]methyl]-2-methoxy-phenyl]pyrrolo[2,1-f][1,2,4]triazin-4-yl]-2-methyl-phenyl]methyl]-1,2,4-oxadiazole-3-carboxamide], the DC50 was < 100 nM. `Cc1cc(-c2ncnn3cc(CCN4CCN(c5ncc(NC6CCC(=O)NC6=O)cc5F)CC4)cc23)ccc1CNC(=O)c1noc(C(C)(C)C)n1` (stereo not shown) [Example 263, 5-(tert-butyl)-N-(4-(6-(2-(4-(5-((2,6-dioxopiperidin-3-yl)amino)-3-fluoropyridin-2-yl)piperazin-1-yl)ethyl)pyrrolo[2,1-f][1,2,4]triazin-4-yl)-2-methylbenzyl)-1,2,4-oxadiazole-3-carboxamide]: the DC50 was < 100 nM. Consider `CC(C)(C)c1nc(C(=O)NCc2ccc(-c3ncnn4cc(C#CC(F)(F)CN5CCC(c6ccc(C7CCC(=O)NC7=O)cc6)CC5)cc34)cc2F)no1` (stereo not shown) [Example 225, 5-tert-butyl-N-[[4-[6-[4-[4-[4-(2,6-dioxo-3-piperidyl)phenyl]-1-piperidyl]-3,3-difluoro-but-1-ynyl]pyrrolo[2,1-f][1,2,4]triazin-4-yl]-2-fluoro-phenyl]methyl]-1,2,4-oxadiazole-3-carboxamide], for which the DC50 was > 1000 nM. On to `CC(C)(C)c1nc(C(=O)NCc2ccc(-c3ncnn4cc(CCCCN5CCC(c6c(F)cc(C7CCC(=O)NC7=O)cc6F)CC5)cc34)cc2F)no1` (stereo not shown) [Example 136, 5-tert-butyl-N-[[4-[6-[4-[4-[4-(2,6-dioxo-3-piperidyl)-2,6-difluoro-phenyl]-1-piperidyl]butyl]pyrrolo[2,1-f][1,2,4]triazin-4-yl]-2-fluoro-phenyl]methyl]-1,2,4-oxadiazole-3-carboxamide], for which the DC50 was < 100 nM. The value for `Cc1cc(-c2ncnn3cc(-c4cnn(CCN5CCN(c6ccc(C7CCC(=O)NC7=O)cn6)CC5)c4)cc23)ccc1CNC(=O)c1noc(C(C)(C)C)n1` (stereo not shown) [Example 298, 5-(tert-butyl)-N-(4-(6-(1-(2-(4-(5-(2,6-dioxopiperidin-3-yl)pyridin-2-yl)piperazin-1-yl)ethyl)-1H-pyrazol-4-yl)pyrrolo[2,1-f] [1,2,4]triazin-4-yl)-2-methylbenzyl)-1,2,4-oxadiazole-3-carboxamide] was < 100 nM. The value for `CC(C)(C)c1nc(C(=O)NCc2ccc(-c3ncnn4cc(-c5ccc(CN6CCCCC6Cc6ccc(OC7CCC(=O)NC7=O)cc6)cn5)cc34)cc2F)no1` (stereo not shown) [Example 233, 5-(tert-butyl)-N-(4-(6-(5-((2-(4-((2,6-dioxopiperidin-3-yl)oxy)benzyl)piperidin-1-yl)methyl)pyridin-2-yl)pyrrolo [2,1-f][1,2,4]triazin-4-yl)-2-fluorobenzyl)-1,2,4-oxadiazole-3-carboxamide] was < 100 nM. As for `CC(C)(C)c1nc(C(=O)NCc2ccc(-c3ncnn4cc(-c5ccc(OCCN6CCC(n7ccc(NC8CCC(=O)NC8=O)n7)CC6)cc5)cc34)cc2F)no1` (stereo not shown) [Example 108, 5-tert-butyl-N-[[4-[6-[4-[2-[4-[3-[(2,6-dioxo-3-piperidyl)amino]pyrazol-1-yl]-1-piperidyl]ethoxy]phenyl]pyrrolo[2,1-f][1,2,4]triazin-4-yl]-2-fluoro-phenyl]methyl]-1,2,4-oxadiazole-3-carboxamide], the DC50 is < 100 nM.

Regarding `Cn1nc(N2CCC(=O)NC2=O)c2ccc(C3CCN(Cc4ccc(-c5cc6c(-c7ccc(CNC(=O)c8noc(C(C)(C)C)n8)c(F)c7)ncnn6c5)cn4)CC3)cc21` [Example 244, 5-(tert-butyl)-N-(4-(6-(6-((4-(3-(2,4-dioxotetrahydropyrimidin-1(2H)-yl)-1-methyl-1H-indazol-6-yl)piperidin-1-yl)methyl)pyridin-3-yl)pyrrolo[2,1-f][1,2,4]triazin-4-yl)-2-fluorobenzyl)-1,2,4-oxadiazole-3-carboxamide], the 50% degradation concentration (DC50) is < 100 nM. As to `Cc1cc(-c2ncnn3cc(-c4ccc(CN5CCC(c6ccc(NC7CCC(=O)NC7=O)cc6)CC5)cc4)cc23)ccc1CNC(=O)c1cnc(C(C)(C)C)o1` (stereo not shown) [Example 85, 2-tert-butyl-N-[[4-[6-[4-[[4-[4-[(2,6-dioxo-3-piperidyl)amino]phenyl]-1-piperidyl]methyl]phenyl]pyrrolo[2,1-f][1,2,4]triazin-4-yl]-2-methyl-phenyl]methyl]oxazole-5-carboxamide], the DC50 is < 100 nM. Turning to `Cc1cc(-c2ncnn3cc(-c4ccc(CN5CCC(c6ccc(NC7CCC(=O)NC7=O)cc6Cl)CC5)cc4)cc23)ccc1CNC(=O)c1noc(C(C)(C)C)n1` (stereo not shown) [Example 24, 5-tert-butyl-N-[[4-[6-[4-[[4-[2-chloro-4-[(2,6-dioxo-3-piperidyl)amino]phenyl]-1-piperidyl]methyl]phenyl]pyrrolo[2,1-f][1,2,4]triazin-4-yl]-2-methyl-phenyl]methyl]-1,2,4-oxadiazole-3-carboxamide], the DC50 was < 100 nM. The value for `Cc1cc(-c2ncnn3cc(-c4ccc(CN5CCC(c6ccc(N[C@H]7CCC(=O)NC7=O)cc6F)CC5)cc4)cc23)ccc1CNC(=O)c1noc(C(C)(C)C)n1` [Example 25, (S)-5-(tert-butyl)-N-(4-(6-(4-((4-(4-((2,6-dioxopiperidin-3-yl)amino)-2-fluorophenyl)piperidin-1-yl)methyl)phenyl)pyrrolo[2,1-f][1,2,4]triazin-4-yl)-2-methylbenzyl)-1,2,4-oxadiazole-3-carboxamide] was < 100 nM; that for `CC(C)(C)c1nc(C(=O)NCc2ccc(-c3ncnn4cc(-c5ccc(CN6CCN(Cc7cccc(OC8CCC(=O)NC8=O)c7)CC6)cn5)cc34)cc2F)no1` (stereo not shown) [Example 235, 5-(tert-butyl)-N-(4-(6-(5-((4-(3-((2,6-dioxopiperidin-3-yl)oxy)benzyl)piperazin-1-yl)methyl)pyridin-2-yl)pyrrolo[2,1-f][1,2,4]triazin-4-yl)-2-fluorobenzyl)-1,2,4-oxadiazole-3-carboxamide] was < 100 nM; that for `Cc1cc(-c2ncnn3cc(CCCCN4CCC(c5ccc6c(N7CCC(=O)NC7=O)nn(C)c6c5)CC4)cc23)ccc1CNC(=O)c1noc(C2(C(F)(F)F)CC2)n1` [Example 282, N-(4-(6-(4-(4-(3-(2,4-dioxotetrahydropyrimidin-1(2H)-yl)-1-methyl-1H-indazol-6-yl)piperidin-1-yl)butyl)pyrrolo[2,1-f][1,2,4]triazin-4-yl)-2-methylbenzyl)-5-(1-(trifluoromethyl)cyclopropyl)-1,2,4-oxadiazole-3-carboxamide] was < 100 nM. As for `Cc1cc(-c2ncnn3cc(-c4nccc(CN5CCC(c6ccc(C7CCC(=O)NC7=O)cc6)CC5)c4F)cc23)ccc1CNC(=O)c1noc(C(C)(C)C)n1` (stereo not shown) [Example 217, 5-(tert-butyl)-N-(4-(6-(4-((4-(4-(2,6-dioxopiperidin-3-yl)phenyl)piperidin-1-yl)methyl)-3-fluoropyridin-2-yl)pyrrolo[2,1-f][1,2,4]triazin-4-yl)-2-methylbenzyl)-1,2,4-oxadiazole-3-carboxamide], the DC50 is < 100 nM.
